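Cells were grown in 96-well plates and exposed to each compound for 48 hours at five concentrations; endpoints were interpolated linearly between bracketing concentrations, or set to the highest concentration if not reached. TGI is the concentration that stops growth completely.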
What was measured:
Assay in all cases: DTP human tumour cell line panel, 48 h
[1] = system: SNB-19 CNS
[2] = system: RXF-631 renal
[3] = system: IGROV1 ovarian
[4] = system: NCI-H460 lung
[5] = system: LXFL 529 NSCLC
[6] = system: SF-268 CNS
[7] = system: SF-539 CNS
[8] = system: SR leukemia
[9] = system: OVCAR-3 ovarian
[10] = system: RXF 393 renal
[11] = system: HCC-2998 colon
[12] = system: HT29 colon
[13] = system: HL-60(TB) leukemia
[14] = system: CCRF-CEM leukemia
[15] = system: U251 CNS
[16] = system: TK-10 renal
[17] = system: SK-MEL-28 melanoma
[18] = system: NCI-H23 lung
[19] = system: SK-OV-3 ovarian
[20] = system: K-562 leukemia
[21] = system: COLO 205 colon
[22] = system: HCT-15 colon
[23] = system: UO-31 renal
[24] = system: OVCAR-4 ovarian
[25] = system: 786-0 renal
[26] = system: DMS 114 small cell lung
[27] = system: EKVX NSCLC
[28] = system: MALME-3M melanoma
[29] = system: SF-295 CNS
[30] = system: HOP-18 NSCLC
[31] = system: DLD-1 colon
[32] = system: RPMI-8226 leukemia
[33] = system: KM12 colon
[34] = system: MOLT-4 leukemia
[35] = system: NCI-H522 lung
[36] = system: LOX IMVI melanoma
[37] = system: KM20L2 colon
[38] = system: OVCAR-5 ovarian
[39] = system: SW-620 colon
[40] = system: SNB-75 CNS
[41] = system: M14 melanoma
[42] = system: NCI-H226 lung
[43] = system: OVCAR-8 ovarian
[44] = system: HCT-116 colon
[45] = system: XF 498 CNS
[46] = system: SK-MEL-5 melanoma
[47] = system: ACHN renal
[48] = system: M19-MEL melanoma
[49] = system: A549 NSCLC
[50] = system: UACC-257 melanoma
[51] = system: UACC-62 melanoma
[52] = system: CAKI-1 renal
[53] = system: SN12C renal
[54] = system: HOP-62 NSCLC
[55] = system: HOP-92 NSCLC
[56] = system: SK-MEL-2 melanoma
[57] = system: A498 renal
[58] = system: SNB-78 CNS
[59] = system: DMS 273 small cell lung

CCCCCC(=O)C(C)C1=Nc2nnc(CCCCCCCc3nnc4n3C(=O)C(C(C)C(=O)CCCCC)=N4)n2C1=O (centres undefined)
TGI [1]: > 100 µM | TGI [2]: > 100 µM | TGI [3]: > 100 µM | TGI [4]: > 100 µM | TGI [5]: > 100 µM | TGI [6]: > 100 µM | TGI [7]: > 100 µM | TGI [8]: > 100 µM | TGI [9]: > 100 µM | TGI [10]: > 100 µM | TGI [11]: > 100 µM | TGI [12]: > 100 µM | TGI [13]: > 100 µM | TGI [14]: > 100 µM | TGI [15]: > 100 µM | TGI [16]: > 100 µM | TGI [17]: > 100 µM | TGI [18]: > 100 µM | TGI [19]: > 100 µM | TGI [20]: > 100 µM | TGI [21]: > 100 µM | TGI [22]: > 100 µM | TGI [23]: > 100 µM | TGI [24]: > 100 µM | TGI [25]: > 100 µM | TGI [26]: > 100 µM | TGI [27]: > 100 µM | TGI [28]: > 100 µM | TGI [29]: > 100 µM | TGI [30]: > 100 µM | TGI [31]: > 100 µM | TGI [32]: > 100 µM | TGI [33]: > 100 µM | TGI [34]: > 100 µM | TGI [35]: > 100 µM | TGI [36]: > 100 µM | TGI [37]: > 100 µM | TGI [38]: > 100 µM | TGI [39]: > 100 µM | TGI [40]: > 100 µM | TGI [41]: > 100 µM | TGI [42]: > 100 µM | TGI [43]: > 100 µM | TGI [44]: > 100 µM | TGI [45]: > 100 µM | TGI [46]: > 100 µM | TGI [47]: > 100 µM | TGI [48]: > 100 µM | TGI [49]: > 100 µM | TGI [50]: > 100 µM | TGI [51]: > 100 µM | TGI [52]: > 100 µM | TGI [53]: > 100 µM | TGI [54]: > 100 µM

O=C1c2ccc(O)cc2C(=O)c2ccc(O)cc21
TGI [1]: > 100 µM | TGI [2]: > 100 µM | TGI [55]: > 100 µM | TGI [3]: > 100 µM | TGI [4]: > 100 µM | TGI [5]: > 100 µM | TGI [56]: > 100 µM | TGI [6]: > 100 µM | TGI [7]: > 100 µM | TGI [9]: > 100 µM | TGI [10]: 91.8 µM | TGI [11]: > 100 µM | TGI [12]: > 100 µM | TGI [13]: > 100 µM | TGI [14]: > 100 µM | TGI [15]: > 100 µM | TGI [16]: > 100 µM | TGI [17]: > 100 µM | TGI [18]: > 100 µM | TGI [19]: 84.8 µM | TGI [20]: > 100 µM | TGI [21]: > 100 µM | TGI [22]: > 100 µM | TGI [23]: 73.2 µM | TGI [24]: > 100 µM | TGI [25]: > 100 µM | TGI [26]: > 100 µM | TGI [27]: > 100 µM | TGI [28]: > 100 µM | TGI [29]: > 100 µM | TGI [31]: > 100 µM | TGI [32]: > 100 µM | TGI [33]: > 100 µM | TGI [34]: > 100 µM | TGI [35]: > 100 µM | TGI [36]: > 100 µM | TGI [38]: > 100 µM | TGI [39]: > 100 µM | TGI [40]: 81.5 µM | TGI [41]: > 100 µM | TGI [43]: > 100 µM | TGI [44]: > 100 µM | TGI [45]: > 100 µM | TGI [57]: > 100 µM | TGI [46]: > 100 µM | TGI [47]: > 100 µM | TGI [48]: > 100 µM | TGI [49]: > 100 µM | TGI [58]: > 100 µM | TGI [59]: > 100 µM | TGI [50]: > 100 µM | TGI [51]: > 100 µM | TGI [52]: > 100 µM | TGI [53]: > 100 µM | TGI [54]: > 100 µM

— PubChem BioAssay (NCI)
